Source: patent US10150737B2, “Compounds for controlling arthropods” (priority 2013, dated 2018)

What was measured:
[1] = system: Phaedon cochleariae; experiment: Phaedon cochleariae - spray test; type: in vivo; settings: larvae on Chinese cabbage leaf discs, after 7 days
Experimental: (§1) Solvent: 78.0 parts by weight of acetone and 1.5 parts by weight of dimethylformamide
(§2) Emulsifier: alkylaryl polyglycol ether
(§3) To produce an appropriate active ingredient formulation, 1 part by weight of active ingredient is dissolved using the specified parts by weight of solvent and made up with water containing an emulsifier concentration of 1000 ppm until the desired concentration is attained. To produce further test concentrations, the preparation is diluted with emulsifier-containing water.
Discs of Chinese cabbage leaves (Brassica pekinensis) are sprayed with an active ingredient formulation of the desired concentration and, after drying, populated with larvae of the mustard beetle (Phaedon cochleariae).
After 7 days, efficacy in % is determined. 100% means that all the beetle larvae have been killed; 0% means that no beetle larvae have been killed.

[2] = system: Boophilus microplus; experiment: Boophilus microplus - injection test; type: in vivo; settings: application rate 20 μg/animal; injection into engorged adult female ticks; after 7 days
Experimental: (§4) Solvent: dimethyl sulphoxide
To produce an appropriate active ingredient formulation, 10 mg of active ingredient are mixed with 0.5 ml of solvent and the concentrate is diluted with solvent to the desired concentration.
1 μl of the active ingredient solution is injected into the abdomen of 5 engorged adult female cattle ticks (Boophilus microplus). The animals are transferred into dishes and kept in a climate-controlled room.
Efficacy is assessed after 7 days by laying of fertile eggs. Eggs which are not visibly fertile are stored in a climate-controlled cabinet until the larvae hatch after about 42 days. An efficacy of 100% means that none of the ticks has laid any fertile eggs; 0% means that all the eggs are fertile.

[3] = system: Lucilia cuprina; experiment: Lucilia cuprina test; type: in vivo; settings: application rate 100 ppm; L1 larvae; after 2 days
Experimental: as §4
To produce an appropriate active ingredient formulation, 10 mg of active ingredient are mixed with 0.5 ml of dimethyl sulphoxide, and the concentrate is diluted with water to the desired concentration.
About 20 L1 larvae of the Australian sheep blowfly (Lucilia cuprina) are transferred into a test vessel containing minced horsemeat and the active ingredient preparation of the desired concentration.
After 2 days, the kill in % is determined. 100% means that all the larvae have been killed; 0% means that none of the larvae have been killed.

[4] = logP determination by HPLC on a reversed-phase column (C18); type: physicochemical; settings: for logP^a): HPLC-MS method a); for log P: HPLC-MS
[5] = system: Ctenocephalides felis; experiment: Ctenocephalides felis - oral test; type: in vivo; settings: application rate 100 ppm in citrated cattle blood; after 2 days
Experimental: as §4
For the purpose of producing an appropriate active ingredient formulation, 10 mg of active ingredient are mixed with 0.5 ml of dimethyl sulphoxide. Dilution with citrated cattle blood gives the desired concentration.
About 20 unfed adult cat fleas (Ctenocephalides felis) are placed into a chamber which is closed at the top and bottom with gauze. A metal cylinder whose bottom end is closed with parafilm is placed onto the chamber. The cylinder contains the blood/active ingredient preparation, which can be imbibed by the fleas through the parafilm membrane.
After 2 days, the kill in % is determined. 100% means that all of the fleas have been killed; 0% means that none of the fleas have been killed.

[6] = system: Spodoptera frugiperda; experiment: Spodoptera frugiperda - spray test; type: in vivo; settings: caterpillars on maize leaf discs, after 7 days
Experimental: as §1, §2, §3
Leaf discs of maize (Zea mays) are sprayed with an active ingredient formulation of the desired concentration and, after drying, populated with caterpillars of the armyworm (Spodoptera frugiperda).
After 7 days, efficacy in % is determined. 100% means that all the caterpillars have been killed; 0% means that no caterpillars have been killed.

[7] = system: Tetranychus urticae; experiment: Tetranychus urticae - spray test, OP-resistant; type: in vivo; settings: bean leaf discs, after 6 days
Experimental: as §1, §2, §3
Discs of bean leaves (Phaseolus vulgaris) infested by all stages of the greenhouse red spider mite (Tetranychus urticae) are sprayed with an active ingredient formulation of the desired concentration.
After 6 days, efficacy in % is determined. 100% means that all the spider mites have been killed; 0% means that none of the spider mites have been killed.

[8] = reversed-phase column (C18), Table I-T3

Structure (SMILES)	efficacy ([1]; application rate 100 g/ha) [%]	efficacy (laying of fertile eggs) [2] [%]	efficacy (kill) [3] [%]	logP^a) ([4]; reversed-phase column (C18))	log P [4, 8]	efficacy (kill) [5] [%]	efficacy ([6]; application rate 100 g/ha) [%]	efficacy ([1]; application rate 500 g/ha) [%]	logP^a) [4]	logP^a) [4, 8]	efficacy ([7]; application rate 100 g/ha) [%]	efficacy ([6]; application rate 500 g/ha) [%]	efficacy ([7]; application rate 500 g/ha) [%]	logP ([4]; HPLC, C18 reversed phase, acetonitrile/water with formic acid, EEC Directive 79/831 Annex V.A8)	efficacy ([7]; application rate 20 g/ha) [%]
Cc1cc(C(F)(C(F)(F)F)C(F)(F)F)cc(C)c1-n1cc(-c2cnc(C3CC3)c(C(=O)NC3CC3)c2)cn1 [I-T3-140]	100	100	100	4.2	4.2	100	100	–	–	–	–	–	–	–	–
Cc1cc(C(F)(C(F)(F)F)C(F)(F)F)cc(C)c1-n1cc(-c2cc(C(=O)NC3CC3)cc(C(F)(F)F)c2)cn1 [I-T3-15]	–	100	100	–	–	90	–	100	4.9	4.9	–	–	–	–	–
CCc1cc(C(F)(F)C(F)(F)F)cc(C)c1-n1cc(-c2ccc(Cl)c(C(=O)NCC(F)(F)F)c2)cn1 [I-T3-82]	100	100	100	–	–	95	100	–	4.0	4.0	100	–	–	–	–
N#CC1(NC(=O)c2cc(-c3cnn(-c4ncc(C(F)(F)F)cc4Cl)c3)ccc2Cl)CC1 [I-T3-59]	100	100	100	–	–	100	–	–	3.1	3.1	–	–	–	–	–
O=C(NCCC(F)(F)F)c1cc(-c2cnn(-c3ccc(C(F)(C(F)(F)F)C(F)(F)F)cc3Cl)c2)ccc1Cl [I-T3-33]	–	100	100	–	–	100	–	–	4.7	4.7	–	–	–	–	–
CCc1cc(C(F)(C(F)(F)F)C(F)(F)F)ccc1-n1cc(-c2cccc(C(=O)NC3(C#N)CC3)c2F)cn1 [I-T3-74]	–	100	90	–	–	–	–	100	4.1	4.5	90	100	–	–	–
Cc1cc(C(F)(C(F)(F)F)C(F)(F)F)cc(C)c1-n1cc(-c2cc(C(=O)NC3(C#N)CC3)c(F)cc2Cl)cn1 [I-T3-12]	–	100	80	–	–	100	–	100	4.7	4.7	–	100	–	–	–
Cc1cc(C(F)(C(F)(F)F)C(F)(F)F)cc(C)c1-n1cc(-c2cc(C(=O)NC3(C#N)CC3)cc(C(F)(F)F)c2)cn1 [I-T3-18]	–	100	100	–	–	100	–	100	4.7	4.7	–	100	–	–	–
CCc1cc(C(F)(C(F)(F)F)C(F)(F)F)ccc1-n1cc(-c2cccc(C(=O)NC3CC3)c2F)cn1 [I-T3-75]	–	90	80	–	–	–	–	100	4.2	4.7	–	100	100	–	–
O=C(NC1CC1)c1cc(-c2cnn(-c3ncc(C(F)(F)F)cc3Cl)c2)ccc1Cl [I-T3-60]	–	100	90	–	–	90	–	–	3.2	3.2	–	–	–	–	–
O=C(NCC(F)(F)F)c1cc(-c2cnn(-c3ccc(C(F)(C(F)(F)F)C(F)(F)F)cc3OC(F)(F)F)c2)ccc1Cl [I-T3-36]	–	100	100	–	–	80	–	100	5.0	5.0	–	–	–	–	–
Cc1cc(C(F)(C(F)(F)F)C(F)(F)F)cc(C)c1-n1cc(-c2ccc(Cl)c(C(=O)NCC(=O)NCC(F)(F)F)c2)cn1 [I-T3-6]	100	100	100	–	–	–	–	–	4.1	4.1	–	–	–	–	–
O=C(NCC(F)(F)F)c1cc(-c2cnn(-c3ccc(C(F)(C(F)(F)F)C(F)(F)F)cc3Cl)c2)ccc1Cl [I-T3-32]	–	100	100	–	–	100	–	–	4.7	4.7	–	–	–	–	–
Cn1ccc(NC(=O)c2cc(-c3cnn(-c4c(Cl)cc(C(F)(F)F)cc4Cl)c3)cnc2Cl)n1 [I-T3-146]	–	100	90	2.8	2.8	100	–	–	–	–	100	–	–	–	–
O=C(NC1CC1)c1cc(-c2ccn(-c3c(Cl)cc(C(F)(C(F)(F)F)C(F)(F)F)cc3Cl)c2)cnc1Cl [I-T46-4]	100	–	–	–	–	–	100	–	–	–	100	–	–	4.5	–
CCc1cc(C(F)(C(F)(F)F)C(F)(F)F)ccc1-n1cc(-c2ccc(Cl)c(C(=O)NCC(F)(F)F)c2)cn1 [I-T3-40]	100	100	100	–	–	100	100	–	4.9	4.9	–	–	–	–	–
N#CC1(NC(=O)c2cc(-c3cnn(-c4c(F)cc(C(F)(F)F)cc4F)c3)ccc2Cl)CC1 [I-T3-49]	100	100	100	–	–	100	–	–	3.2	3.2	–	–	–	–	100
O=C(NC1CSC1)c1cc(-c2cnn(-c3ccc(C(F)(C(F)(F)F)C(F)(F)F)cc3OC(F)(F)F)c2)ccc1Cl [I-T3-37]	–	100	100	–	–	90	–	100	4.9	4.9	–	–	–	–	–
